Laboratory results from PubChem BioAssay AID1919016 (Molecular Pharmacology Branch, DTP, NCI, 2023).

System: NCI-H196 complex spheroid growth, percent test/control
Experiment: Anticancer human tumor NCI-H196 cell line growth inhibition [AhR];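 also: seven days of drug exposure starting three days after plating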;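 as to viability, T/C: 100% = DMSO vehicle control wells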
Conditions: for IC50: curve of first compound; for viability, T/C: stronger effect = lower value
Excerpt: Multicellular complex tumor spheroid response to aryl hydrocarbon receptor antagonists in combination with a variety of drugs and investigational agents in selected tumor cell lines
The current study was undertaken to assess response to aryl hydrocarbon receptor antagonists in combination with standard-of-care drugs and investigational agents in solid tumor complex spheroid models. Complex spheroids include a stromal component modeled by human endothelial cells (HUVEC) and fibroblasts modeled by human mesenchymal stem cells (MSCs). The concentration ranges selected for each drug and investigational agent were based upon clinically achievable concentrations if the clinical Cmax of the agent was known.
Compounds. The drugs and investigational agents: BAY 2416964 (NSC825713), GNF351 (NSC835774), CH-223191 (NSC835775), CPI-455 (NSC825282), aza-TdCyd (NSC777586), decitabine (NSC127716), belinostat (NSC758774), entinostat (NSC756642), pevonedistat (NSC761192), tazemetostat (NSC777109), talazoparib (NSC765396), olaparib (NSC753686), selinexor (NSC780203), nedisertib (M3814, NSC802822), bortezomib (NSC756655), venetoclax (NSC766270), doxorubicin (NSC123127), elimusertib (BAY189344, NSC800525), ceralasertib (AZD6738, NSC777638), TAK-243 (NSC785004), alisertib (NSC759677), etoposide (NSC141540), topotecan (NSC609699), eribulin (NSC707389), gemcitabine (NSC613327), carboplatin (NSC241240), cisplatin (NSC119875), and SN-38 (NSC673596) were obtained from the National Cancer Institute (NCI) Developmental Therapeutics Program Chemical Repository (32). The FDA-approved anticancer drug set is available from the Developmental Therapeutics Program at https://dtp.cancer.gov/organization/dscb/obtaining/available plates.htm. […] The stock solutions were prepared in dimethyl sulfoxide (DMSO, Sigma-Aldrich, St. Louis, MO, cat. D2650), except for the platinum compounds which were prepared in saline (Quality Biological, Gaithersburg, MD, cat. 114-055-101), at 800-fold the tested concentration and stored at -70 degrees C prior to their use. All drugs and investigational agents were tested over a range starting from a high concentration at or near the clinical Cmax and decreasing in half-log increments. If the clinical Cmax for an agent had not been determined, the highest concentration tested was 10 microM (Table 1).
Cell Culture. All cells were maintained in an incubator at 37 degrees C and 5% CO2 with 95% humidity. The PDC lines were cultured according to standard operating procedures established by the NCI PDMR (https://pdmr.cancer.gov). Briefly, all PDCs were thawed and cultured in Matrigel-coated flasks prepared with a working solution of 1X Ham's F-12 nutrient mix, without supplementation (Invitrogen, Waltham, MA, cat. 11765054), 100 U/mL penicillin-streptomycin (Invitrogen, cat. 15140122), and 2.5% Matrigel (Corning Inc., Corning, NY, cat. 354248) for the first three passages. All PDCs were cultured in complete DMEM/F-12 media containing advanced DMEM/F-12 (Invitrogen, cat. 12634028), 4.9% defined fetal bovine serum, heat inactivated (HyClone Laboratories Inc., Logan, UT, cat. SH30070.03HI), 389 ng/mL hydrocortisone (Sigma-Aldrich, cat. H4001), 9.7 ng/mL human EGF recombinant protein (Invitrogen, cat. PHG0313), 23.4 microg/mL adenine (Sigma-Aldrich, cat. A2786), 97.3 U/mL penicillin-streptomycin (Invitrogen, cat. 15140122), 1.9 mM L-glutamine (Invitrogen, cat. 25030081), and 9.7 microM Y-27632 dihydrochloride (Tocris Bioscience, Bristol, United Kingdom, cat. 1254). The PDCs were cultured in complete DMEM/F12 media without 10 microM Y-27632 dihydrochloride for at least two passages prior to the screen. The established cell lines NCI-H1341 and […] were cultured in DMEM/F-12, HEPES (Invitrogen, cat. 11330032), 5% defined fetal bovine serum (HyClone Laboratories Inc., cat. SH30070.03), ITS premix universal culture supplement [insulin (5 microg/mL), transferrin (5 microg/mL), and selenious acid (5 ng/mL)] […]

[1] = second compound 0.1 µM, first compound 0.0316 µM
[2] = second compound 0.1 µM, first compound 0.1 µM
[3] = second compound 0.1 µM, first compound 0.316 µM
[4] = second compound 0.1 µM, first compound 1 µM
[5] = second compound 0.1 µM, first compound 3.16 µM
[6] = second compound 0.1 µM, first compound 10 µM
[7] = second compound 0.316 µM, first compound 0.0316 µM
[8] = second compound 0.316 µM, first compound 0.1 µM
[9] = second compound 0.316 µM, first compound 0.316 µM
[10] = second compound 0.316 µM, first compound 1 µM
[11] = second compound 0.316 µM, first compound 3.16 µM
[12] = second compound 0.316 µM, first compound 10 µM
[13] = second compound 1 µM, first compound 0.0316 µM
[14] = second compound 1 µM, first compound 0.1 µM
[15] = second compound 1 µM, first compound 0.316 µM
[16] = second compound 1 µM, first compound 1 µM
[17] = second compound 1 µM, first compound 3.16 µM
[18] = second compound 1 µM, first compound 10 µM
[19] = second compound 3.16 µM, first compound 0.0316 µM
[20] = second compound 3.16 µM, first compound 0.1 µM
[21] = second compound 3.16 µM, first compound 0.316 µM
[22] = second compound 3.16 µM, first compound 1 µM
[23] = second compound 3.16 µM, first compound 3.16 µM
[24] = second compound 3.16 µM, first compound 10 µM
[25] = second compound 10 µM, first compound 0.0316 µM
[26] = second compound 10 µM, first compound 0.1 µM
[27] = second compound 10 µM, first compound 0.316 µM
[28] = second compound 10 µM, first compound 1 µM
[29] = second compound 10 µM, first compound 3.16 µM
[30] = second compound 10 µM, first compound 10 µM

SMILES | IC50 (second compound 0.1 µM) [µM] | IC50 (second compound 0.316 µM) [µM] | IC50 (second compound 1 µM) [µM] | IC50 (second compound 3.16 µM) [µM] | IC50 (second compound 10 µM) [µM] | viability, T/C [1] [%] | viability, T/C [2] [%] | viability, T/C [3] [%] | viability, T/C [4] [%] | viability, T/C [5] [%] | viability, T/C [6] [%] | viability, T/C [7] [%] | viability, T/C [8] [%] | viability, T/C [9] [%] | viability, T/C [10] [%] | viability, T/C [11] [%] | viability, T/C [12] [%] | viability, T/C [13] [%] | viability, T/C [14] [%] | viability, T/C [15] [%] | also measured
COc1cc(Nc2ncc3c(n2)-c2ccc(Cl)cc2C(c2c(F)cccc2OC)=NC3)ccc1C(=O)O + CC(CO)NC(=O)c1cc(-c2ccc(Cl)cc2)nn(-c2cnn(C)c2)c1=O | > 10 | > 10 | > 10 | > 10 | > 10 | 91.5 | 107 | 116 | 112 | 111 | 138 | 103 | 106 | 119 | 113 | 127 | 116 | 101 | 98.9 | 112 | viability, T/C [16]: 111%; viability, T/C [17]: 136%; viability, T/C [18]: 134%; viability, T/C [19]: 107%; viability, T/C [20]: 108%; viability, T/C [21]: 121%; viability, T/C [22]: 115%; viability, T/C [23]: 130%; viability, T/C [24]: 132%; viability, T/C [25]: 107%; viability, T/C [26]: 109%; viability, T/C [27]: 126%; viability, T/C [28]: 122%; viability, T/C [29]: 127%; viability, T/C [30]: 131%
Nc1ccn(C2OC(CO)C(O)C2(F)F)c(=O)n1 (stereo not given) + CC(CO)NC(=O)c1cc(-c2ccc(Cl)cc2)nn(-c2cnn(C)c2)c1=O | > 10 | > 10 | > 10 | > 10 | > 10 | 94 | 93.3 | 67.5 | 60.2 | 65.2 | 63.1 | 101 | 98 | 67.9 | 65.1 | 62 | 63.7 | 92.9 | 86.6 | 75.1 | viability, T/C [16]: 60.7%; viability, T/C [17]: 61.1%; viability, T/C [18]: 69.8%; viability, T/C [19]: 98.3%; viability, T/C [20]: 96.4%; viability, T/C [21]: 69.9%; viability, T/C [22]: 61.3%; viability, T/C [23]: 59.7%; viability, T/C [24]: 70.3%; viability, T/C [25]: 105%; viability, T/C [26]: 101%; viability, T/C [27]: 78%; viability, T/C [28]: 73.1%; viability, T/C [29]: 66.8%; viability, T/C [30]: 73.2%
